Reference: patent US6440958B1, “Acrylic and propionic acid compounds, intermediates, processes, compositions, and methods” (Eli Lilly and Company, priority 1995, dated 2002)

Assays:
[1] = tested on: ovariectomized (OVX) rats; experiment: Uterine eosinophil peroxidase (EPO) assay; assay type: in vivo, Sprague Dawley rats
[2] = tested on: ovariectomized (OVX) rats; experiment: Uterine eosinophil peroxidase (EPO) assay; assay type: in vivo, Sprague Dawley rats; set-up: unit not given here; settings: oral, daily for 4 days
Excerpt: (§1) Seventy-five day old female Sprague Dawley rats (weight range of 200 to 225g) were obtained from Charles River Laboratories (Portage, Mich.). The animals were either bilaterally ovariectomized (OVX) or exposed to a Sham surgical procedure at Charles River Laboratories, and then shipped after one week. Upon arrival, they were housed in metal hanging cages in groups of 3 or 4 per cage and had ad libitum access to food (calcium content approximately 0.5%) and water for one week. Room temperature was maintained at 22.2°±1.7° C. with a minimum relative humidity of 40%. The photoperiod in the room was 12 hours light and 12 hours dark.
(§2) Dosing Regimen Tissue Collection. After a one week acclimation period (therefore, two weeks post-OVX) daily dosing with test compound was initiated. 17α-ethynyl estradiol or the test compound were given orally, unless otherwise stated, as a suspension in 1% carboxymethylcellulose or dissolved or suspended in 20% cyclodextrin. Animals were dosed daily for 4 days. Following the dosing regimen, animals were weighed and anesthetized with a ketamine: Xylazine (2:1, V:V) mixture and a blood sample was collected by cardiac puncture. The animals were then sacrificed by asphyxiation with CO2, the uterus was removed through a midline incision, and a wet uterine weight was determined.
Uterine Eosinoihil Peroxidase (EPO) Assay. Uteri were kept at 4° C. until time of enzymatic analysis. The uteri were then homogenized in 50 volumes of 50 mM Tris buffer (pH -8.0) containing 0.005% Triton X-100. Upon addition of 0.01% hydrogen peroxide and 10 mM O-phenylenediamine (final concentrations) in Tris buffer, increase in absorbance was monitored for one minute at 450 nm. The presence of eosonophils in the uterus is an indication of estrogenic activity of a compound. The maximal velocity of a 15 second interval was determined over the initial, linear portion of the reaction curve.

[3] = tested on: ovariectomized (OVX) rats; experiment: Serum cholesterol in ovariectomized rat post-menopausal model; assay type: in vivo, Sprague Dawley rats; settings: oral, daily for 4 days
Protocol: (§3) In the examples illustrating the methods, a post-menopausal model was used in which effects of different treatments upon circulating lipids were determined.
as §1, §2
Cholesterol Analysis. Blood samples were allowed to clot at room temperature for 2 hours, and serum was obtained following centrifugation for 10 minutes at 3000 rpm. Serum cholesterol was determined using a Boehringer Mannheim Diagnostics high performance cholesterol assay. Briefly the cholesterol was oxidized to cholest-4-en-3-one and hydrogen peroxide. The hydrogen peroxide was then reacted with phenol and 4-aminophenazone in the presence of peroxidase to produce a p-quinone imine dye, which was read spectrophotometrically at 500 nm. Cholesterol concentration was then calculated against a standard curve. The entire assay was automated using a Biomek Automated Workstation.

[4] = tested on: ovariectomized (OVX) rats; experiment: Uterine wet weight in ovariectomized rat post-menopausal model; assay type: in vivo, Sprague Dawley rats; settings: for Uterine weight (% increase vs. OVX): oral, daily for 4 days, OVX rats
Protocol: as §3, §1, §2

[5] = dose 0.1 mg/kg, test compounds in CDX susp. or soln.
[6] = dose 0.1 mg/kg, test compounds in CDX (cyclodextrin) susp. or soln.
[7] = dose 1 mg/kg, CDX susp. or soln.
[8] = dose 10 mg/kg, CDX susp. or soln.

Row | SMILES | Eosinophil infiltration into the uterus (stromal layer), in words [1] | Uterine EPO (V. max) [2, 5] | Serum Cholesterol (% decrease vs. OVX) [3, 5] [%] | Uterine weight (% increase vs. OVX) [4, 6] [%] | Effect on uterus / uterine weight (in words) ([4]; orally administered at 0.1 mg/kg/day, vs. ovariectomized test animals) | Uterine EPO (V. max) [2, 7] | Uterine EPO (V. max) [2, 8] | Serum Cholesterol (% decrease vs. OVX) [3, 7] [%] | Serum Cholesterol (% decrease vs. OVX) [3, 8] [%] | melting point [°C] | Uterine weight (% increase vs. OVX) [4, 7] [%] | Uterine weight (% increase vs. OVX) [4, 8] [%]
1 | C#C[C@]1(O)CC[C@H]2[C@@H]3CCc4cc(O)ccc4[C@H]3CC[C@@]21C [EE2, 17α-ethynyl estradiol, reference compound] | substantial, expected increase in eosinophil infiltration | 130.5 | 68.6 | 201.3 | uterine weight was substantially greater than the uterine weight of ovariectomized test animals | – | – | – | – | – | – | –
2 | COc1ccc(-c2sc3cc(OC)ccc3c2C(=O)c2ccc(/C=C/C(=O)O)cc2)cc1 [Example 2] | – | 2.1 | −16.6 | 25.0 | – | 2.1 | 35.1 | −37.3 | 73.2 | 204 to 207 | 23.3 | 119.9
3 | O=C(O)/C=C/c1ccc(C(=O)c2c(-c3ccc(O)cc3)sc3cc(O)ccc23)cc1 [Example 3, (E)-6-hydroxy-3-[4-(2-carboxyvinyl)benzoyl]-2-(4-hydroxyphenyl)benzo[b]thiophene] | – | 0.9 | −15.1 | 23.9 | – | 1.2 | 8.4 | −26.6 | 57.7 | – | 19.7 | 97.3
4 | O=C(O)CCc1ccc(C(=O)c2c(-c3ccc(O)cc3)sc3cc(O)ccc23)cc1 [Example 4, 6-hydroxy-3-[4-(2-carboxyethyl)benzoyl]-2-(4-hydroxyphenyl)benzo[b]thiophene] | – | 0.0 | −46.2 | −45.9 | – | 0.0 | 1.2 | −28.8 | 16.5 | 244 to 248 | −37.0 | 29.3
